Data from patent publication US20220233512A1, “INHIBITING AN IMMUNE RESPONSE MEDIATED BY ONE OR MORE OF TLR2, RAGE, CCR5, CXCR4 AND CD4” (priority 2020, published 2022).

Molecular target: T1, mu opiate receptor (MOR) (Rattus norvegicus, UniProt P33535)
T1 construct: from tissue; host or cells: striatum (membrane preparation)
Experiment: MOR agonist activity using [35S]GTPgS binding assay in striatal membranes
Assay type: biochemical
Conditions: Series C-2 table
Outline: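 Rat striatal membranes incubated 5 min at 30 °C in pH 7.5 HEPES buffer with 100 mM NaCl, 1 mM MgCl2 and 0.5 nM [35S]GTPgS, then 5 min with compound. Gαo-bound [35S]GTPgS isolated by immunoprecipitation and counted by liquid scintillation.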

T1 sequence (P33535 whole entry): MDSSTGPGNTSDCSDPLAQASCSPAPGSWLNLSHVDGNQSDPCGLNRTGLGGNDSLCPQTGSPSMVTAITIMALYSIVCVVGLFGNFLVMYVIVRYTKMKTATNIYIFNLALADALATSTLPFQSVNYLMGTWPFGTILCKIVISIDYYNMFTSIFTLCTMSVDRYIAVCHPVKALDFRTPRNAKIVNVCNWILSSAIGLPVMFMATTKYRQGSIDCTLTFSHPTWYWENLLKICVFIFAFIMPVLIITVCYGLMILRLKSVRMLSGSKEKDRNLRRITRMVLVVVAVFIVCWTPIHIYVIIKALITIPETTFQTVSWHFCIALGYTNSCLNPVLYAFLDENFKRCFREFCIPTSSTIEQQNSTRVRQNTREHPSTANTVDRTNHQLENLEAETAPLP

SMILES | MOR agonist activity ([35S]GTPgS binding to Gao) (0.1 μM compound as agonist) [%] | MOR agonist activity ([35S]GTPgS binding to Gao) (1 μM + BFNA) [%] | MOR agonist activity ([35S]GTPgS binding to Gao) (1 μM compound as agonist) [%]
C=CCN1CCC2(CC1)OCCN2S(=O)(=O)c1ccc(C(C)=O)cc1 [Compound C0096M] | 186.4 | 127.1 | 328.9
CCOC(=O)CN1CCC2(CC1)OCCN2S(=O)(=O)c1ccc(C(C)=O)cc1 [Compound C0099M] | 157.2 | 114.7 | 195.7
CC(=O)c1ccc(S(=O)(=O)N2CCOC23CCN(CC(=O)O)CC3)cc1 [Compound C0100M] | 173.6 | 195.6 | 245.9
CCCCN1CCC2(CC1)OCCN2S(=O)(=O)c1ccc(C(C)=O)cc1 [Compound C0101M] | 138.2 | 174.8 | 274.3
CCCCN1CCC2(CC1)OCCN2S(=O)(=O)c1ccc(OC)cc1 [Compound C0102M] | 131.8 | 150.4 | 272.0
CN1CCC2(CC1)NC(=O)CN2Cc1ccccc1 [Compound C0104M] | 188.2 | 143.8 | 238.9
CN1CCC2(CC1)OCCN2S(=O)(=O)c1ccc(S(C)(=O)=O)cc1 [Compound C0106M] | 171.8 | 117.2 | 240.7
CC(=O)c1ccc(S(=O)(=O)N2CC(CN(C)C)OC23CCN(C)CC3)cc1 (stereo not drawn) [Compound C0108M] | 205.6 | 76.9 | 258.5
O=C1CNC2(CCNCC2)N1Cc1ccccc1 [Compound C0114M] | 114.0 | 35.9 | 144.3
O=C1CN(Cc2ccccc2)C2(CCNCC2)N1 [Compound C0115M] | 177.2 | 118.4 | 226.8
CS(=O)(=O)c1ccc(S(=O)(=O)N2CCOC23CCNCC3)cc1 [Compound C0116M] | 258.4 | 152.0 | 302.8
CC(=O)c1ccc(S(=O)(=O)N2CC(CN(C)C)OC23CCNCC3)cc1 (stereo not drawn) [Compound C0118M] | 166.2 | 79.2 | 261.5
CC(=O)c1ccc(S(=O)(=O)N2C(Cc3c[nH]cn3)C(=O)NC23CCNCC3)cc1 (stereo not drawn) [Compound C0119M] | 105.7 | 35.1 | 167.8
O=C1CNC2(CCN(CC3CC3)CC2)N1Cc1ccccc1 [Compound C0124M] | 252.0 | 61.4 | 305.1
O=C1CN(Cc2ccccc2)C2(CCN(CC3CC3)CC2)N1 [Compound C0125M] | 168.6 | 159.7 | 195.2
CS(=O)(=O)c1ccc(S(=O)(=O)N2CCOC23CCN(CC2CC2)CC3)cc1 [Compound C0126M] | 181.8 | 108.5 | 265.3
CC(=O)c1ccc(S(=O)(=O)N2CC(CN(C)C)OC23CCN(CC2CC2)CC3)cc1 (stereo not drawn) [Compound C0128M] | 197.8 | 63.9 | 286.0
COc1ccc(S(=O)(=O)N2CCOC23CCN(C(C)C)CC3)cc1 [Compound C0133M] | 139.4 | 72.4 | 214.8
